Data reported in article PMC4046262 (Scientific Reports, 2014).

Tests used:
[1] = molecular target: AtCRY1 PHR (Arabidopsis thaliana, UniProt Q43125); assay: biochemical
[2] = molecular target: full-length (wild-type) AtCRY1 (Arabidopsis thaliana, UniProt Q43125); details: FAD-bound full-length protein; details only in supplement
Chain of full-length (wild-type) AtCRY1 (Q43125 whole entry): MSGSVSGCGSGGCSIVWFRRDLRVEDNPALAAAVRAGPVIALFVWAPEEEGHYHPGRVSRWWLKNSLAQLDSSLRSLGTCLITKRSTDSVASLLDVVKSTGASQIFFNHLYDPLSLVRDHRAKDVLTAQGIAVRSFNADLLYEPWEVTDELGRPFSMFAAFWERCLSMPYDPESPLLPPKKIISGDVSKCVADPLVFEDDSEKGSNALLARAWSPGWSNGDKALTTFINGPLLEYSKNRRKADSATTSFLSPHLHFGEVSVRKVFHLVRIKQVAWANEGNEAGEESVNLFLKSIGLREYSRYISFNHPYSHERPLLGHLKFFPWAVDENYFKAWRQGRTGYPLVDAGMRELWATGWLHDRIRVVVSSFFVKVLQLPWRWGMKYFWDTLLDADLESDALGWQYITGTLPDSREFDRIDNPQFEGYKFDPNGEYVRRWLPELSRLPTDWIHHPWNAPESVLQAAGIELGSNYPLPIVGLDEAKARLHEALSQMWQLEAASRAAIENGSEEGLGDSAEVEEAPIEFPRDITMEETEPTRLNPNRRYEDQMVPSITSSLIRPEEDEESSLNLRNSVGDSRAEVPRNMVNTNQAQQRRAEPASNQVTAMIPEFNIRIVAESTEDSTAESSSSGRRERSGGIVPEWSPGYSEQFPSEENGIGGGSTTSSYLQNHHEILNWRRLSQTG

Chain of AtCRY1 PHR (Q43125 1-509): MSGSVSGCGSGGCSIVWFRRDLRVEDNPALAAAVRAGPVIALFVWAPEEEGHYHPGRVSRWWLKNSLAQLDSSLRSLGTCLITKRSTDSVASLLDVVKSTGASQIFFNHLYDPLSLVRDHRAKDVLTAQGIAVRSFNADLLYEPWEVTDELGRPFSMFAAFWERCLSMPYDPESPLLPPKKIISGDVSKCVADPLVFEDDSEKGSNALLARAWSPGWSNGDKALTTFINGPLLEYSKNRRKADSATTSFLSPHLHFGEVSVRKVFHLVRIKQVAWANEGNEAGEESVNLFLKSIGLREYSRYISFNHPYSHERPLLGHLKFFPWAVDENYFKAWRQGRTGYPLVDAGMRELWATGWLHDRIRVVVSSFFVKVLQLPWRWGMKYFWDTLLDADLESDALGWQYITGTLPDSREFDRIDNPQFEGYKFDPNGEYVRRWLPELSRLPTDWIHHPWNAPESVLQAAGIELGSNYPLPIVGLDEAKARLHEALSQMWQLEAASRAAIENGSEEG

Kd [1]: 1400 ± 600 nM
SMILES: Nc1ncnc2c1ncn2[C@@H]1O[C@H](COP(=O)(O)OP(=O)(O)OP(=O)(O)O)[C@@H](O)[C@H]1O [ATP]
UV-Vis and transient absorption with ATP (control experiments) [2]: we have not found any significant differences in their photoreactions
